Assay results published in the NIST ThermoML archive (doi:10.1016/j.jct.2017.03.033).

Assay: molar heat capacity at constant pressure
Details: Flow calorimetry

CC(C)C [2-methylpropane]
Details	molar heat capacity at constant pressure [J/K/mol]
353.87 K, 10990 kPa, Liquid	150.71
353.87 K, 11500 kPa, Liquid	150.42
353.88 K, 2000 kPa, Liquid	166.17
353.88 K, 3510 kPa, Liquid	160.94
353.88 K, 7510 kPa, Liquid	153.15
353.88 K, 12010 kPa, Liquid	149.9
353.89 K, 5510 kPa, Liquid	157.05
353.89 K, 6510 kPa, Liquid	155.42
353.9 K, 1540 kPa, Liquid	168.38
353.9 K, 4000 kPa, Liquid	160.01
353.9 K, 7990 kPa, Liquid	152.75
363.86 K, 2090 kPa, Liquid	174.19
363.91 K, 2520 kPa, Liquid	171.93
363.92 K, 5030 kPa, Liquid	162.8
363.92 K, 6510 kPa, Liquid	159.43
363.92 K, 8020 kPa, Liquid	156.81
363.93 K, 3000 kPa, Liquid	170.01
363.93 K, 7000 kPa, Liquid	158.5
363.94 K, 5510 kPa, Liquid	161.75
363.94 K, 8500 kPa, Liquid	156.12
363.95 K, 11990 kPa, Liquid	152.05
363.96 K, 4040 kPa, Liquid	165.71
363.96 K, 6000 kPa, Liquid	160.88
363.96 K, 7510 kPa, Liquid	157.92
363.96 K, 9970 kPa, Liquid	153.91
363.96 K, 10510 kPa, Liquid	153.09
363.97 K, 3510 kPa, Liquid	167.22
363.97 K, 8990 kPa, Liquid	155.13
363.97 K, 11000 kPa, Liquid	152.75
363.98 K, 4500 kPa, Liquid	164.66
363.98 K, 9510 kPa, Liquid	154.2
364 K, 11540 kPa, Liquid	152.34
373.85 K, 2530 kPa, Liquid	186.46
373.85 K, 7050 kPa, Liquid	164.54
373.87 K, 7520 kPa, Liquid	163.73
373.89 K, 7980 kPa, Liquid	162.86
373.89 K, 9480 kPa, Liquid	160.48
373.9 K, 5520 kPa, Liquid	169.02
373.9 K, 6000 kPa, Liquid	167.45
373.9 K, 10000 kPa, Liquid	159.78
373.91 K, 9020 kPa, Liquid	161.23
373.92 K, 3010 kPa, Liquid	182.39
373.92 K, 4500 kPa, Liquid	172.97
373.92 K, 8520 kPa, Liquid	162.1
373.93 K, 4020 kPa, Liquid	175.3
373.94 K, 6520 kPa, Liquid	166.64
373.95 K, 5020 kPa, Liquid	171.34
373.95 K, 11010 kPa, Liquid	158.15
373.95 K, 11470 kPa, Liquid	157.45
373.95 K, 11990 kPa, Liquid	157.1
373.97 K, 3530 kPa, Liquid	179.02
373.98 K, 10490 kPa, Liquid	158.44
383.2 K, 2550 kPa, Liquid	209.82
383.21 K, 6010 kPa, Liquid	173.96
383.26 K, 6520 kPa, Liquid	171.81
383.3 K, 3960 kPa, Liquid	188.32
383.32 K, 4990 kPa, Liquid	179.89
383.34 K, 4500 kPa, Liquid	183.72
383.35 K, 3010 kPa, Liquid	201.04
383.42 K, 3490 kPa, Liquid	193.84
383.44 K, 5490 kPa, Liquid	177.21
383.92 K, 6990 kPa, Liquid	170.65
383.92 K, 9990 kPa, Liquid	163.61
383.93 K, 10490 kPa, Liquid	161.7
383.93 K, 12090 kPa, Liquid	159.14
383.94 K, 7980 kPa, Liquid	168.55
383.94 K, 9460 kPa, Liquid	164.25
383.94 K, 11010 kPa, Liquid	160.71
383.94 K, 11570 kPa, Liquid	159.37
383.95 K, 9030 kPa, Liquid	164.95
383.96 K, 7520 kPa, Liquid	169.54
383.97 K, 8470 kPa, Liquid	166.75
393.93 K, 4520 kPa, Liquid	197.56
393.95 K, 3560 kPa, Liquid	222.96
393.96 K, 3090 kPa, Liquid	248.47
393.99 K, 4980 kPa, Liquid	192.79
393.99 K, 7000 kPa, Liquid	177.62
393.99 K, 9000 kPa, Liquid	170.47
394 K, 8010 kPa, Liquid	174.6
394 K, 9500 kPa, Liquid	169.6
394.01 K, 7500 kPa, Liquid	176.28
394.02 K, 6000 kPa, Liquid	183.49
394.02 K, 12020 kPa, Liquid	165.3
394.03 K, 8510 kPa, Liquid	173.38
394.03 K, 11010 kPa, Liquid	166.75
394.04 K, 4060 kPa, Liquid	208.37
394.05 K, 6500 kPa, Liquid	180.59
394.05 K, 9990 kPa, Liquid	168.03
394.05 K, 11510 kPa, Liquid	165.53
394.06 K, 5490 kPa, Liquid	187.33
394.09 K, 10520 kPa, Liquid	167.28
403.41 K, 4080 kPa, Liquid	248.65
403.41 K, 4510 kPa, Liquid	227.2
403.43 K, 5070 kPa, Liquid	209.76
403.44 K, 5520 kPa, Liquid	201.92
403.49 K, 9990 kPa, Liquid	173.15
403.5 K, 8500 kPa, Liquid	177.97
403.51 K, 6500 kPa, Liquid	192.5
403.51 K, 8000 kPa, Liquid	180.88
403.52 K, 6010 kPa, Liquid	195.93
403.53 K, 6990 kPa, Liquid	189.01
403.53 K, 8990 kPa, Liquid	175.94
403.53 K, 10960 kPa, Liquid	172.8
403.53 K, 12000 kPa, Liquid	170.65
403.54 K, 10490 kPa, Liquid	172.91
403.55 K, 9510 kPa, Liquid	174.54
403.55 K, 11490 kPa, Liquid	172.16
403.58 K, 7550 kPa, Liquid	184.77
413.26 K, 4120 kPa, Fluid (supercritical or subcritical phases)	593.02
413.46 K, 4510 kPa, Fluid (supercritical or subcritical phases)	315.55
413.47 K, 5490 kPa, Fluid (supercritical or subcritical phases)	230.16
413.48 K, 6060 kPa, Fluid (supercritical or subcritical phases)	211.86
413.5 K, 4980 kPa, Fluid (supercritical or subcritical phases)	256.44
413.51 K, 6500 kPa, Fluid (supercritical or subcritical phases)	205.29
413.51 K, 7000 kPa, Fluid (supercritical or subcritical phases)	197.5
413.52 K, 11000 kPa, Fluid (supercritical or subcritical phases)	171.93
413.53 K, 7980 kPa, Fluid (supercritical or subcritical phases)	188.9
413.53 K, 8490 kPa, Fluid (supercritical or subcritical phases)	186.05
413.53 K, 10480 kPa, Fluid (supercritical or subcritical phases)	174.77
413.54 K, 7520 kPa, Fluid (supercritical or subcritical phases)	191.28
413.54 K, 10010 kPa, Fluid (supercritical or subcritical phases)	176.92
413.54 K, 11510 kPa, Fluid (supercritical or subcritical phases)	170.01
413.54 K, 11940 kPa, Fluid (supercritical or subcritical phases)	169.43
413.55 K, 8990 kPa, Fluid (supercritical or subcritical phases)	180.93
413.56 K, 9510 kPa, Fluid (supercritical or subcritical phases)	178.9
